US20100087498A1, “USE OF BIOTIN TO PREVENT PHOTOAGING” (priority 2007, published 2010)

Tested on: MMP-1 expression in primary human dermal fibroblasts
Assay: Inhibition of UV-A induced expression of matrix metalloproteinase-1 (MMP-1 RNA, real time PCR) in skin fibroblasts
Format: cell-based
Conditions: 30 J/cm^2 UVA1; for MMP-1 expression relative to UV-A only treated cells / reduction of UV-A induced MMP-1 expression: primary human dermal fibroblasts; for MMP-1 expression relative to UV-A only treated cells: 48 h preincubation, 24 hrs after irradiation; for reduction of UV-A induced MMP-1 expression: concentrations as in Table 1
Experimental: Primary human dermal fibroblasts were cultured in EMEM without glutamine (Earle's Minimum Essential Medium), supplemented with antibiotics/antimycotics, 2 mM L-glutamine and 7.5% fetal calf serum at 37° C./5% CO2 and grown to 100% confluency. Forty-eight hours prior to irradiation the cells were preincubated with the desired substances in EMEM (with AB/AM, L-Glutamine and 2% FCS. After 24 hours the medium was replaced by fresh medium with substances (freshly prepared). For irradiation, the medium was removed and after 6 wash steps with phosphate-buffered saline (PBS) replaced by phosphate-buffered saline (PBS). The plate was then exposed to 30 J/cm^2 UVA1. The UVA1 output was approximately 150 mW/cm^2. After irradiation the phosphate-buffered saline in the cell microplate was exchanged against culture medium (+7.5% FCS) with the substances (fresh prepared) and the cells were incubated in a CO2-incubator for further 24 hrs (MMP-1 determination). The culture medium was removed, the cells were rinsed with phosphate-buffered saline and the whole plate was frozen in liquid nitrogen. Total RNA was isolated using RNeasy Total RNA Kits (Qiagen, Hilden; Germany). The RNA concentration was determined via photometric measurement at 260/280. Aliquots of total RNA (75 ng) were applied for cDNA-Synthesis using Superscript™III First-Strand synthesis system for RT-PCR. Two samples for each compound were analyzed. The PCR reactions were carried out on an Opticon 1 (MJ Research, Waltham, Mass., USA) using SYBR Green® PCR Master Mix (Applied Biosystems, Darmstadt, Germany). For comparison of relative expression in real time PCR control cells and treated cells the 2 ^(-delta delta C(T)) method was used.

[1] = EGCG 9 μmol/L, Biotin 0.03 μmol/L

Compound | inhibition at 0.03 µM (Homo sapiens, Fibroblast, light or radiation study, inhibition of UV-A induced MMP-1 expression, EGCG 9 μmol/L, Biotin 0.03 μmol/L) [%] | MMP-1 expression relative to UV-A only treated cells [1] [%] | reduction of UV-A induced MMP-1 expression [%] | % inhibition (inhibition of UV-A induced MMP-1 expression, EGCG 9 μmol/L, Biotin 0.03 μmol/L) [%]
O=C(O)CCCC[C@@H]1SC[C@@H]2NC(=O)N[C@@H]21 [Biotin] | 66 | 35 | 66 | 
(-)-epigallocatechin gallate [EGCG] |  | 87 | 13 | 13
